US5708063A, “Photochromic compound” (Tokuyama Corporation, priority 1993, dated 1998)

Legend:
Type in all cases: physicochemical
[1] = Fatigue life of fulgide/fulgimide and chromene compound in polymerized plate with ultraviolet light stabilizer (Example 16)
[2] = Visual color tone of polymerized plate under sunlight (Example 15); details: 0.05 part
Method: (§1) […] The mixed solution was injected into a mold which was made of a glass plate and a gasket formed of an ethylene-vinyl acetate copolymer, and was heated to a temperature of 35° to 90° C. in an air oven over a period of 20 hours for polymerization. After the polymerization was over, the polymer was withdrawn from the glass plate of the mold.
(§2) The resulting polymerized plate was irradiated with sunlight for 10 minutes. On this occasion, a color tone of said plate was visually observed. In this polymerized plate, the fulgide or fulgimide compound and the chromene compound were measured for fatigue life in the same manner as in Example 9. Further, a color tone of the polymerized plate was visually observed in T1/2 (hrs.) of the fulgide or fulgimide compound.

[3] = Photochromic PMMA cast film: initial coloration density, maximum absorption wavelength and fatigue life in xenon fadeometer (Example 9); details: PMMA cast film 0.1 mm; for λmax / Initial color density: xenon light; for Initial color density / T1/2: no stabilizer; for T1/2: time for color density to fall to half of initial value, xenon fadeometer;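 on Initial color density: initial color density is an absorbance value so the % unit is wrong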
Text: The thickness of the cast film was adjusted to 0.1 mm.
(§3) T1/2 is defined as the time required for the color density to decrease to half of its initial value when the film is exposed to the fadeometer.

[4] = Durability of poly(allyl diglycol carbonate) lens impregnated with the compound in silicone oil, as in Example 9 (Example 10); set-up: Initial color density: unit not given here; details: silicone oil impregnation
Method: as §3
The solution was impregnated in the surface of a lens composed of poly(allyl diglycol carbonate) at 200° C. for 1 hour. The concentration of the solution was adjusted to 1.0×10^-4 mole/g.

[5] = Fatigue life of fulgide/fulgimide and chromene compound in polymerized methacrylate plate (Example 15); details: for T1/2 of fulgide or fulgimide compound: 0.05 part
Method: as §1, §2

[6] = Fatigue life of photochromic PMMA cast film with ultraviolet stabilizer, xenon fadeometer (Examples 11-14); details: PMMA film, UV stabilizer Cyasorb UV1084, 0.2 part
Method: One hundred parts by weight of benzene, 10 parts by weight of poly(methyl methacrylate), 0.2 part […] The solution was cast on a slide glass (11.2×3.7 cm) to form a cast film having a thickness of 0.1 mm.
The fatigue life of photochromic film was measured as in Example 9 by a xenon long-life fadeometer (FAL-25AX-HC made by Suga Testing Instrument Co., Ltd.).
Example 11 was repeated except that the fulgimide compound obtained in Example 2 was used instead of fulgimide compound used in Example 11.
Example 11 was repeated except that the fulgimide or fulgide compounds shown in Table 28 were used instead of the fulgimide compounds in Example 11, and Cyasorb UV1084 was used as the ultraviolet stabilizer.

[7] = with chromenes 1/2 (0.015/0.015 part)

## CC1CC1C1=C2C(=O)N(CCCCCc3cccc4ccccc34)C(=O)C2C2(c3sc4c(c31)CCCC4)C1CC3CC(C1)CC2C3 (centres unmarked) [(48)]
[1]; 0.05 part, chromene 1 (0.04), Spinuvex A-36 (0.6)
  T1/2 of fulgide or fulgimide compound: 430 h
[1]; 0.05 part, chromene 2 (0.05), Cyasorb UV 1084 (0.6)
  T1/2 of fulgide or fulgimide compound: 420 h
[1]; 0.05 part, chromene 3 (0.1), Tinuvin 765 (0.7)
  T1/2 of fulgide or fulgimide compound: 450 h
[1]; 0.05 part, chromene 4 (0.1), UV Check AM101 (0.4)
  T1/2 of fulgide or fulgimide compound: 440 h
[1]; 0.05 part, chromene 5 (0.05), Tinuvin 622 (0.7)
  T1/2 of fulgide or fulgimide compound: 450 h
[2]; with chromene 1 (0.04 part)
  Color tone in T0: gray
  Color tone in T1/2: gray
[2]; [7]
  Color tone in T0: gray
  Color tone in T1/2: gray
[3]
  λmax: 588 nm
  Initial color density: 0.75%
  T1/2: 62 h
[4]
  λmax: 590 nm
[4]; 1.0×10^-4 mole/g
  Initial color density: 0.67
[4]; xenon fadeometer
  T1/2: 65 h
[5]; with chromene 1 (0.04 part)
  T1/2 of fulgide or fulgimide compound: 154 h
[5]; [7]
  T1/2 of fulgide or fulgimide compound: 154 h

## COC(=O)C(C)N1C(=O)C2=C(C3CC3(C)C)c3ccoc3C3(C4CCC3(Cl)CC4)C2C1=O (centres unmarked) [(12)]
[6]
  T1/2: 320 h
[2]; with chromene 4 (0.08 part)
  Color tone in T0: gray
  Color tone in T1/2: gray
[3]
  λmax: 581 nm
  Initial color density: 0.78%
  T1/2: 77 h
[5]; with chromene 4 (0.08 part)
  T1/2 of fulgide or fulgimide compound: 184 h

## CC1=Cc2c(ccc3ccccc23)OC12CC1CCC2C1 (centres unmarked) [Chromene compound 4, 3'-methylspiro[norbornane-2,2'-[2H]benzo-[f]chromene]]
[1]; 0.01 part, fulgimide 2 (0.05), LS-2626 (0.4)
  T1/2 of chromene compound: 480 h
[1]; 0.1 part, fulgimide 48 (0.05), UV Check AM101 (0.4)
  T1/2 of chromene compound: 430 h
[5]; 0.04 part, with fulgide/fulgimide 24 (0.05 part)
  T1/2 of chromene compound: 152 h
[5]; 0.08 part, with fulgide/fulgimide 12 (0.05 part)
  T1/2 of chromene compound: 180 h

## CCC(C(=O)C[N+](=O)[O-])N1C(=O)C2=C(C3CC3)c3cc(OC)cc(OC)c3C3(C4CC5CC(C4)CC3C5)C2C1=O (centres unmarked) [(45)]
[6]
  T1/2: 265 h
[2]; with chromene 2 (0.03 part)
  Color tone in T0: gray
  Color tone in T1/2: light gray
[3]
  λmax: 579 nm
  Initial color density: 0.54%
  T1/2: 65 h
[5]; with chromene 2 (0.03 part)
  T1/2 of fulgide or fulgimide compound: 160 h

## CCCCCCCCOc1cccc2c3c(ccc12)C=CC(C)(C)O3 [Chromene compound 5, 2,2-dimethyl-7-octoxy[2H]benzo[h]chromene]
[1]; 0.05 part, fulgimide 2 (0.05), Mark LA-87 (0.5)
  T1/2 of chromene compound: 450 h
[1]; 0.05 part, fulgimide 48 (0.05), Tinuvin 622 (0.7)
  T1/2 of chromene compound: 430 h
[5]; 0.03 part, with fulgide/fulgimide 17 (0.05 part)
  T1/2 of chromene compound: 120 h
[5]; 0.04 part, with fulgide/fulgimide 15 (0.05 part)
  T1/2 of chromene compound: 192 h
[5]; 0.07 part, with fulgide/fulgimide 46 (0.05 part)
  T1/2 of chromene compound: 155 h

## 7'-methoxyspiro(bicyclo[3.3.1]nonane-9,2'-(2H)benzo(f)-chromene) [Chromene compound 2]
[1]; 0.04 part, fulgimide 2 (0.05), Tiniuvin 765 (0.1)
  T1/2 of chromene compound: 340 h
[1]; 0.04 part, fulgimide 2 (0.05), Tinuvin 765 (0.2)
  T1/2 of chromene compound: 350 h
[1]; 0.04 part, fulgimide 2 (0.05), Tinuvin 765 (0.5)
  T1/2 of chromene compound: 400 h
[1]; 0.04 part, fulgimide 2 (0.05), Tinuvin 765 (1.0)
  T1/2 of chromene compound: 480 h
[1]; 0.04 part, fulgimide 2 (0.05), Tinuvin 765 (2.0)
  T1/2 of chromene compound: 500 h
[1]; 0.04 part, fulgimide 2 (0.05), Tinuvin 765 (10.0)
  T1/2 of chromene compound: 520 h
[1]; 0.04 part, fulgimide 2 (0.05), UV Chek AM105 (0.7)
  T1/2 of chromene compound: 440 h
[1]; 0.05 part, fulgimide 2 (0.05), LA-63 (0.5)
  T1/2 of chromene compound: 480 h
[1]; 0.05 part, fulgimide 48 (0.05), Cyasorb UV 1084 (0.6)
  T1/2 of chromene compound: 430 h
[5]; 0.03 part, with fulgide/fulgimide 2 (0.05 part)
  T1/2 of chromene compound: 210 h
[5]; 0.03 part, with fulgide/fulgimide 21 (0.05 part)
  T1/2 of chromene compound: 170 h
[5]; 0.03 part, with fulgide/fulgimide 36 (0.05 part)
  T1/2 of chromene compound: 190 h
[5]; 0.03 part, with fulgide/fulgimide 45 (0.05 part)
  T1/2 of chromene compound: 175 h
[5]; 0.03 part, with fulgide/fulgimide 54 (0.05 part)
  T1/2 of chromene compound: 165 h
[5]; 0.04 part chromene 2, with fulgide/fulgimide 2/48 (0.025/0.025 part)
  T1/2 of chromene compound: 190 h

## CC1=CC2(Oc3ccc4ccccc4c31)C1CCCC2CCC1 (centres unmarked) [Chromene compound 3, 4'-methylspiro[bicyclo[3.3.1]nonane-9,2'-[2H]benzo[f]chromene]]
[1]; 0.01 part, fulgimide 2 (0.05), Cyasorb 944 (0.5)
  T1/2 of chromene compound: 400 h
[1]; 0.1 part, fulgimide 48 (0.05), Tinuvin 765 (0.7)
  T1/2 of chromene compound: 420 h
[5]; 0.08 part, with fulgide/fulgimide 10 (0.05 part)
  T1/2 of chromene compound: 150 h
[5]; 0.08 part, with fulgide/fulgimide 44 (0.05 part)
  T1/2 of chromene compound: 160 h

## C1=CC2(CC3CCC2C3)Oc2c1ccc1ccccc21 (centres unmarked) [Chromene compound 1, Spiro(norbornane-2,2'-(2H)benzo(h)-chromene)]
[1]; 0.03 part, fulgimide 2 (0.05), Irgastab 2002 (0.5)
  T1/2 of chromene compound: 480 h
[1]; 0.04 part, fulgimide 48 (0.05), Spinuvex A-36 (0.6)
  T1/2 of chromene compound: 430 h
[5]; 0.03 part, with fulgide/fulgimide 8 (0.05 part)
  T1/2 of chromene compound: 170 h
[5]; 0.03 part, with fulgide/fulgimide 30 (0.05 part)
  T1/2 of chromene compound: 170 h
[5]; 0.04 part chromene 1, with fulgide/fulgimide 2/48 (0.025/0.025 part)
  T1/2 of chromene compound: 190 h
[5]; 0.04 part, with fulgide/fulgimide 48 (0.05 part)
  T1/2 of chromene compound: 148 h
